Source: patent US7585519B2, “Esters of L-carnitine or alkanoyl L-carnitines useful as cationic lipids for the intracellular delivery of pharmacologically active compounds” (Sigma-Tau Industrie Farmaceutiche Riunite S.p.A., priority 1999, dated 2009)
Several values for one entry are separate records, joined by “and”; a condition that tells them apart may be missing. Equal entries are not always repeated. Values belong to the compound of their own block, whether it stands above or below them.

Legend:
M109 cells = assay: In-vitro cytotoxicity test (sulforhodamine B, SRB); format: cell-based, murine; conditions: for optical density reading at 540 nm (Mean): Table 2.3; for optical density reading at 540 nm (single reading): Table 2.3, listed as DMSO-CPT 83
Method: The toxicity assays were done on HeLa and M109 cells in 96-well plates. On the day after plating, the cells were treated with the molecules being tested for the next 48 hours. The cells were then washed with PBS and left in normal growth conditions for 48 hours. After removal of the growth medium, the cells were incubated on ice with 16% TCA, washed 3 times in H2O, treated for 30 minutes with sulforhodamine B (SRB) in 1% acetic acid, washed 3 times in 1% acetic acid alone, incubated for 20 minutes in TRIS 10 mM pH 10.5 and, lastly, readings were taken at 540 nm. To evaluate the ability of the liposome to transport CPT 83 in vitro in M109 cells the sulforhodamine B test described above was used. In addition, the cytotoxicity of CPT 83 dissolved in dimethyl-sulphoxide (DMSO) was also evaluated as compared to that of the same molecule complexed with the ST 983 liposome. The liposome-CPT 83 complex was used in the cytotoxicity assays at the concentrations indicated in Tables 2.1, 2.2 and […] here below in both the SUV and MLV configurations. The liposome:CPT 83 molar ratio used was 40:1.

[1] = test system: luciferase gene of pCMVluc plasmid in liver, lung and heart; assay: In-vivo plasmid DNA transfection test (luciferase activity in tissues); set-up: species or system Balb/c mice
Method: In the in-vivo experiments, both DOTAP and [2,3-(dioleoyl)propyl]trimethylammonium (DOTMA) were used as reference cationic lipids.
The molar ratios defined in the results refer to nmol concentrations of the respective cationic lipids per […] of DNA.
In the in-vivo transfection experiments, 25 μg of plasmid DNA per animal were used.
The plasmid pCMVluc used in these experiments contained the cDNA of the luciferase gene under the transcriptional control of the cytomegalovirus (CMV) promoter.
Protein luciferase activity in cells and tissues was determined using the Boehringer Mannheim kit (cat no. 1669 893).
The cells were washed 3 times in PBS and then removed from the plate with a scraper in lysis buffer (100 mM potassium phosphate pH 7.8. 1 mM dithiothreitol-DTT) and submitted to three consecutive cycles of freezing and thawing. After centrifuging in 1.5 mL Eppendorf tubes, the supernatant was used for the luminescence test not more than 5 hours after extraction of the proteins. Luminescence emission measurements were done using a luminometer at 562 nm. After a first freezing in liquid N2 followed by fine crushing to obtain a powder, the tissues were resuspended in lysis buffer and incubated for 10-15 min in ice.
The samples were then centrifuged in 2 ml Eppendorf tubes and the supernatant was tested for luciferase activity.
Both DOTAP and DOTMA were used as reference cationic lipids, the transfection capacity of which has been amply characterised and described by Abkenet et al., Proc. Natl. Acad. Sci. USA 1993, 90, 6518. In the in-vivo experiments, various different molar ratios of cationic lipids to plasmid DNA were analysed for the purposes of determining the activity of the cationic lipids and the respective most efficient concentrations for gene transfer. The transfection capability of the various liposomes was evaluated both in vitro and in vivo using the luciferase gene […] contained in the pCMVluc plasmid, the activity of which, in terms of relative luminescence units (RLU) (described previously) made for easy quantification.
In this experiment, the dependence of liver, lung and heart transfection efficiency on the ST 983 liposome:plasmid DNA molar ratio was evaluated. The following nmol ratios of liposome per μg DNA were tested: 12:1, 24:1, 36:1 and 48:1.
Groups of 6 Balb/c mice weighing approximately 20 g were treated intravenously with the above-mentioned amounts of liposome-DNA complex in 200 μl volumes of PBS and were sacrificed 24 hours after administration of the complex.

[2] = test system: luciferase gene of pCMVluc plasmid in liver, lung and heart; assay: as above; set-up: species or system Balb/c mice; conditions: molar ratio 12:1
[3] = test system: murine pulmonary carcinoma M109
Method: To induce the tumour in vivo, unanaesthetised Balb/c mice received injections of 3×10^5 cells of murine pulmonary carcinoma M109 in 0.1 ml RPMI-1640 (Sigma) in the quadriceps femoris of the right rear paw.
Taxol (paclitaxel INDENA) used as a control was dissolved in the cremophor vehicle EL (BASF) at a concentration of 20 mg/mL and stored at +4° C. for the next 24 hours, protected against the light. At the time of use, it was diluted with phosphate-buffered saline solution (PBS, SIGMA) and injected intravenously in the same volume and concentration conditions as described for taxol transported by the ST 983 liposome.
The cremophor was prepared by diluting 1:1 with ethyl alcohol.
Administrations were given for seven consecutive days starting from day 10 after inoculation of the tumour. The animals were kept under observation up to day 17 post-inoculation and sacrificed by cervical dislocation, and their lungs were removed for determination of the number of metastases. Staining of the lungs to detect metastases was done by incubating the lungs for 10 days in 5 ml of Bouin's solution, consisting of 71% saturated picric acid solution, 4.8% glacial acetic acid (Merck), and 24% 10% formaldehyde (Fluka). At the end of the incubation period in Bouin's solution, the numbers of metastases were counted.
Statistical analysis of the data for the number of lung metastases was done using the Mann-Whitney non-parametric tests for unpaired data.

HeLa cells = conditions: liposome 9 μM, 2.5 μg plasmid DNA, versus DOTAP, FIGS. 1 and 2
Method: Liposome and plasmid DNA were suitably diluted separately in PBS. The DNA was then added to the liposome and the liposome-DNA complex was left for approximately 30 min at 4° C. to facilitate the formation of a stable liposome-DNA interaction.
In the in-vitro experiments, 1,2-dioleoyloxy-3-trimethyl-ammonium propane (DOTAP) was used as a reference cationic lipid; 2.5 μg of plasmid DNA were used per 2×10^5 HeLa cells, and the liposome concentration was 9 μM.
5 μg of the DNA extracted from the cells were preabsorbed on nylon filters (Boehringer) using the Biorad dot-blot appliance. The filters were then prehybridised for 4 hours at 65° C. with a solution containing 0.5 M of sodium pyrophosphate (NaPi), 1 mM EDTA, 7% SDS. […] The autoradiographic analysis was carried out with the aid of a phosphor imager which uses phosphor screens activated by beta-radiation which are read and quantified by means of a photomultiplier system in conjunction with an image analysis program. […]
As an alternative, the transfection efficiency of a number of cationic liposomes was evaluated by means of densitometric analysis (phosphor imager) of samples of DNA extracted from transfected cells preabsorbed on nitrocellulose filters (dot-blot) and hybridised with ^32P-labelled plasmid DNA markers, as described previously.

[4] = ST 983:DNA molar ratio 24:1, i.v., 24 hours
[5] = ST 983:DNA molar ratio 36:1, i.v., 24 hours
[6] = ST 983:DNA molar ratio 48:1, i.v., 24 hours
[7] = liposome:DNA molar ratio 12:1, i.v., 24 hours
[8] = liposome/DNA preincubation time 30 min.
[9] = liposome/DNA preincubation time 3 h

Compound: CC[C@@]1(O)C(=O)OCc2c1cc1n(c2=O)Cc2c-1nc1ccccc1c2C#N [CPT 83, 7-carbonitrile camptothecin]
- optical density reading at 540 nm (Mean) (M109 cells; 0.0013 μM): 0.8399
- optical density reading at 540 nm (single reading) (M109 cells; 0.0013 μM): 0.863 and 0.795 and 0.831 and 0.878 and 0.809 and 0.816 and 0.886 and 0.841
- optical density reading at 540 nm (Mean) (M109 cells; 0.013 μM): 0.82
- optical density reading at 540 nm (single reading) (M109 cells; 0.013 μM): 0.851 and 0.79 and 0.806 and 0.81 and 0.8 and 0.804 and 0.863 and 0.836
- optical density reading at 540 nm (Mean) (M109 cells; 0.13 μM): 0.4446
- optical density reading at 540 nm (single reading) (M109 cells; 0.13 μM): 0.474 and 0.467 and 0.429 and 0.421 and 0.406 and 0.407 and 0.57 and 0.383
- optical density reading at 540 nm (Mean) (M109 cells; 1.3 μM): 0.309
- optical density reading at 540 nm (single reading) (M109 cells; 1.3 μM): 0.318 and 0.317 and 0.328 and 0.305 and 0.33 and 0.302 and 0.285 and 0.287
- optical density reading at 540 nm (Mean) (M109 cells; 13 μM): 0.2921
- optical density reading at 540 nm (single reading) (M109 cells; 13 μM): 0.285 and 0.288 and 0.312 and 0.318 and 0.281 and 0.267 and 0.3 and 0.286

- Mean RLU/mg protein ± s.d. Lung [1, 4]: 2257856 +/− 280480 RLU/mg protein
- Mean RLU/mg protein ± s.d. heart [1, 4]: 7091 +/− 249 RLU/mg protein
- Mean RLU/mg protein ± s.d. liver [1, 4]: 1310 +/− 385 RLU/mg protein
- Mean RLU/mg protein ± s.d. Lung [1, 5]: 301107 +/− 21503 RLU/mg protein
- Mean RLU/mg protein ± s.d. heart [1, 5]: 8351 +/− 477 RLU/mg protein
- Mean RLU/mg protein ± s.d. liver [1, 5]: 1035 +/− 347 RLU/mg protein
- Mean RLU/mg protein ± s.d. Lung [1, 6]: 112747 +/− 5655 RLU/mg protein
- Mean RLU/mg protein ± s.d. heart [1, 6]: 5251 +/− 489 RLU/mg protein
- Mean RLU/mg protein ± s.d. liver [1, 6]: 1571 +/− 156 RLU/mg protein
- share of the total luciferase extracted from lung, heart and liver located in the lungs ([1]; all molar ratios analysed): approximately 99%
- Mean RLU/mg protein ± s.d. Lung ([1]; liposome/DNA preincubation time 30 min., molar ratio 12:1): 874882 +/− 65917 RLU/mg protein
- Mean RLU/mg protein ± s.d. liver ([1]; liposome/DNA preincubation time 3 h, molar ratio 12:1): 2497 +/− 682 RLU/mg protein
- Mean RLU/mg protein ± s.d. Lung [1, 7]: 8818442 +/− 449529 RLU/mg protein
- Mean RLU/mg protein ± s.d. heart [1, 7]: 28875 +/− 2593 RLU/mg protein
- Mean RLU/mg protein ± s.d. liver [1, 7]: 2589 +/− 140 RLU/mg protein
- increase in luciferase activity in the lung and heart, 3 hours versus 30 minutes preincubation ([1]; molar ratio 12:1): approximately 5 fold
- Mean RLU/mg protein ± s.d. heart [2, 8]: 8118 +/− 263 RLU/mg protein
- Mean RLU/mg protein ± s.d. liver [2, 8]: 3526 +/− 260 RLU/mg protein
- Mean RLU/mg protein ± s.d. Lung [2, 9]: 4225656 +/− 211731 RLU/mg protein
- Mean RLU/mg protein ± s.d. heart [2, 9]: 37100 +/− 1853 RLU/mg protein
Compound: CCCCCCCCCCCCCCCC(=O)O[C@H](CC(=O)OCCCCCCCCCCC)C[N+](C)(C)C.[Cl-] [ST 983, palmitoyl L-carnitine chloride undecyl ester]
- in-vivo plasmid DNA transport efficiency compared with DOTMA ([1]; lung, molar ratio 12:1): efficiency ratings higher than and/or comparable to those of DOTMA

Compound: CC(=O)O[C@H]1C(=O)[C@@]2(C)[C@H]([C@H](OC(=O)c3ccccc3)[C@]3(O)C[C@H](OC(=O)[C@H](O)[C@@H](NC(=O)c4ccccc4)c4ccccc4)C(C)=C1C3(C)C)[C@]1(OC(C)=O)CO[C@@H]1C[C@@H]2O [Taxol, paclitaxel]
- effect on pulmonary metastases compared to untreated control mice ([3]; M109, Balb/c mice, i.v.): no reducing effect on the number of pulmonary metastases
- metastases size ([3]; lung metastases at 17th day after M109 inoculation, BALB/c mice): S (S = small (<1 mm diameter))
- metastases Mean ± s.d ([3]; lung metastases at 17th day after M109 inoculation, BALB/c mice, i.v. for seven consecutive days from day 10): 22 ± 9

Compound: ester of propionyl L-carnitine bromide with 2-hydroxy acetyl 1,3 dipalmitoyl glycerol [ST 772]
- amounts of plasmid DNA in transfected cells (blot analysis) (HeLa cells): same order of magnitude as obtained with DOTAP
